Source: the supplement of paper PMC4858399
Counter-ions that a name gives are not always drawn.

What was measured:
[1] = tested on: Caenorhabditis elegans N2; test: lowest effective concentration for larval growth inhibition (size below effect threshold); higher = less potent; conditions: exposure time 48 h
How it was run: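 Log-transformed well means of per-worm extinction, read as size on a Biosort, came from 50 C. elegans N2 L1 larvae per 96-well grown 48 h at 20°C in K-medium with killed bacteria, 1% DMSO and 0.5 to 200 µM chemical. The lowest effective concentration is the first dose at which the plate-adjusted mean size is below the threshold and stays below it at every higher dose. The threshold is 5.665.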

[2] = tested on: Caenorhabditis elegans N2; test: mean nematode size ln(EXT) after 48 h, plate-adjusted (DMSO control set to 6) (ln(EXT), control-adjusted); higher = larger nematodes / less growth inhibition; conditions: exposure time 48 h
How it was run: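 Synchronised C. elegans N2 L1 larvae were grown for 48 h at 20°C in K-medium containing killed OP50, 1% DMSO and 0.5–200 µM chemical, at 50 per well and 4–6 wells per treatment. The Biosort recorded extinction for each worm, and a growth model removed debris. Worm size was obtained by natural-logging these values and averaging them per well. For plate adjustment, the vehicle control mean was subtracted and 6 was added.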

SMILES | lowest effective concentration [1] [µM] | mean nematode size ln(EXT) (ln) ([2]; 0.5 µM) | mean nematode size ln(EXT) (ln) ([2]; 1 µM) | mean nematode size ln(EXT) (ln) ([2]; 5 µM) | mean nematode size ln(EXT) (ln) ([2]; 10 µM) | mean nematode size ln(EXT) (ln) ([2]; 50 µM) | mean nematode size ln(EXT) (ln) ([2]; 100 µM) | mean nematode size ln(EXT) (ln) ([2]; 200 µM)
CCCCC(CC)COC(=O)CCCCCCCC(=O)OCC(CC)CCCC (stereo unspecified) [Azelaic acid di(2-ethylhexyl) ester] | > 200 | 5.73 | 5.62 | 5.69 | 5.67 | 5.23 | 5.44 | 5.67
C[C@](N)(Cc1ccc(O)c(O)c1)C(=O)O [(-)-3-(3,4-Dihydroxyphenyl)-2-methyl-L-alanine sesquihydrate] | > 200 | 5.88 | 5.88 | 5.89 | 5.89 | 5.88 | 5.87 | 5.85
CCC12COCN1COC2 [5-Ethyl-1-aza-3,7-dioxabicyclo[3.3.0]octane] | > 200 | 5.73 | 6.05 | 6.06 | 5.92 | 5.96 | 5.94 | 5.78
OCc1ccccc1 [Benzyl alcohol] | > 200 | 5.85 | 5.94 | 5.9 | 5.84 | 5.95 | 5.93 | 5.81
CCCCCCCCO [1-Octanol] | > 200 | 6.08 | 5.99 | 6.03 | 6.07 | 5.95 | 5.95 | 5.81
CCC(C)=NO [2-Butanone oxime] | > 200 | 5.68 | 5.89 | 6.05 | 5.8 | 5.82 | 5.68 | 6.2
Cc1c(-c2cccnc2)c2ccccc2n1CCCCC(=O)O [5-[2-methyl-3-(pyridin-3-yl)-1H-indol-1-yl]pentanoic acid] | > 200 | 5.93 | 5.89 | 5.78 | 5.84 | 5.83 | 5.87 | 5.7
Cc1cccc([N+](=O)[O-])c1 [3-Nitrotoluene] | > 200 | 5.78 | 5.89 | 5.82 | 5.77 | 5.93 | 5.88 | 5.85
CCCCN(CCCC)CCCC [Tributylamine] | > 200 | 5.91 | 6 | 5.98 | 6.1 | 5.96 | 5.92 | 5.8
CC(Cl)(Cl)C(=O)O [Dalapon] | > 200 | 5.78 | 6.06 | 6.05 | 6.04 | 5.95 | 5.93 | 5.79
C=CC(N)=O [Acrylamide] | 200 | 6 | 5.68 | 5.69 | 5.76 | 5.89 | 5.76 | 5.65
CCCCOC(=O)c1ccccc1C(=O)OCc1ccccc1 [Butyl benzyl phthalate] | > 200 | 5.93 | 5.94 | 6.01 | 5.98 | 6.17 | 5.76 | 5.67
c1ccc2ncccc2c1 [Quinoline] | > 200 | 5.87 | 5.87 | 5.78 | 5.79 | 5.78 | 5.81 | 5.73
COC(=O)c1ccc(I)cc1S(=O)(=O)NC(=O)Nc1nc(C)nc(OC)n1 [Iodosulfuron-methyl-sodium] | > 200 | 6.1 | 6.11 | 5.88 | 6.04 | 6.15 | 6.07 | 5.89
CCOC(=O)CCC(=O)OCC [Butanedioic acid, diethyl ester] | > 200 | 5.83 | 5.91 | 5.87 | 5.89 | 5.9 | 5.98 | 5.75
Cc1cc(=O)[nH]c(=S)[nH]1 [Methylthiouracil] | > 200 | 6.01 | 5.97 | 5.94 | 5.97 | 6 | 6.12 | 5.98
O=C(O)c1c(Cl)ccc2cc(Cl)cnc12 [Quinclorac] | > 200 | 5.97 | 6.03 | 6.03 | 5.99 | 5.97 | 6.07 | 5.76
NC(=O)N1c2ccccc2C=Cc2ccccc21 [Carbamazepine] | > 200 | 5.86 | 5.85 | 5.88 | 5.83 | 5.88 | 5.85 | 5.67
CCOP(=O)(OCC)Oc1cc(C)nc(C(C)C)n1 [Diazoxon] | > 200 | 6.19 | 6.09 | 6.08 | 6.06 | 6.05 | 6.1 | 5.93
O=C(O)C(Cl)(Cl)Cl [Trichloroacetic acid] | > 200 | 5.84 | 5.85 | 5.86 | 5.91 | 5.89 | 5.91 | 5.67
CCCCCCCCCCCCCCCC [Hexadecane] | > 200 | 5.93 | 5.9 | 5.89 | 5.89 | 5.86 | 5.83 | 5.72
CC(C)NCC(O)c1ccc(O)c(O)c1 (stereo unspecified) [Isoprenaline hydrochloride] | > 200 | 5.94 | 5.97 | 5.91 | 5.94 | 5.95 | 5.54 | 5.84
Cc1ccc(N)cc1O [5-Amino-o-cresol] | > 200 | 5.44 | 5.57 | 5.55 | 5.6 | 5.74 | 5.75 | 5.8
NCC1(Cc2noc(=O)[nH]2)CCCCC1 | > 200 | 5.77 | 5.69 | 5.76 | 5.73 | 5.69 | 5.72 | 5.7
COC(=O)CC(=O)OC [Dimethyl malonate] | > 200 | 5.85 | 5.89 | 5.88 | 6.13 | 5.87 | 5.89 | 5.75
CCCc1ccccc1 [Propylbenzene] | 50 | 5.75 | 5.64 | 5.71 | 5.69 | 5.38 | 5.53 | 5.61
O=C1NS(=O)(=O)c2ccccc21.[Na] [Saccharin sodium salt hydrate] | > 200 | 5.88 | 5.93 | 5.96 | 5.9 | 5.89 | 5.9 | 5.79
